Test results reported in patent US8710231B2, “Inhibitor of casein kinase 1delta and casein kinase 1E” (Pharmadesign, Inc., priority 2010, dated 2014).

What was measured:
[1] = biological target: T1, human recombinant casein kinase 1δ (Homo sapiens, UniProt P48730); assay: Casein kinase 1δ inhibition, Z'-LYTE Ser/Thr 11 Peptide assay; format: biochemical; conditions: 0.3 μg/ml compound; for inhibition at 0.3 µg/mL: 20 μM ATP, 3.0 or 1.0 μg/ml enzyme, formula (2) high-purity from Scheme 2, read-out: Casein kinase 1δ inhibition percentage
T1 construct: purchased INVITROGEN PV3665
Procedure: (§1) The activity of the present compound to inhibit casein kinase 1δ and casein kinase 1ε was measured using human recombinant casein kinase 1δ (INVITROGEN; Cat No. PV3665) or human recombinant casein kinase 1ε (INVITROGEN; Cat No. PV3500) as an enzyme source, and also using Z′-LYTE Ser/Thr 11 Peptide (INVITROGEN; Cat No. PV3671) as a phosphorylation substrate. The composition (final concentration) applied during each inhibitory activity measurement assay is as follows.
Assay for Casein Kinase 1δ
3.0 μg/ml or 1.0 μg/ml casein kinase 1δ, 0.3 μg/ml the present compound, 1.0 μM Peptide, 20 μM ATP, 50 mM HEPES (pH 7.4), 10 mM MgCl2, 0.01% Brij-35, and 0.5% DMSO
(§2) The present compound was previously allowed to react with the enzyme at room temperature, for 15 minutes. Two hours later, the remaining phosphorylation activity was measured using Z′-LYTE Kinase Assay Kit-Ser/Thr 11 Peptide (INVITROGEN; Cat No. PV3670).
(§3) The inhibition percentage of the present compound against the phosphotylation activity of each of casein kinase 1δ and casein kinase 1ε to which the present compound had not been added, was calculated.

[2] = biological target: T2, human recombinant casein kinase 1ε (Homo sapiens, UniProt P49674); assay: Casein kinase 1ε inhibition, Z'-LYTE Ser/Thr 11 Peptide assay; format: biochemical; conditions: 0.3 μg/ml compound; for inhibition at 0.3 µg/mL: 20 μM ATP, 0.5 μg/ml enzyme, formula (2) high-purity from Scheme 2, read-out: Casein kinase1ε inhibition percentage
T2 construct: purchased INVITROGEN PV3500
Procedure: as §1
Assay for Casein Kinase 1ε
0.5 μg/ml casein kinase 1ε, 0.3 μg/ml the present compound, 1.0 μM Peptide, 20 μM ATP, 50 mM HEPES (pH 7.4), 10 mM MgCl2, 0.01% Brij-35, and 0.5% DMSO
as §2, §3

[3] = Solubility of each compound in a DMSO solution; format: physicochemical
Text: In terms of the solubility of each compound in a DMSO solution, a comparison was made among the compound represented by the Formula (2), the compounds represented by the formulae (11) and (14), and a compound in which a halogen atom or the like has not been introduced into the thiophene ring of the compound of the formula (2) (4-((6-methoxy-3-pyridinyl)methylene)-2-(2-thienyl)-5(4H)-oxazolone). The compound represented by the formula (2) and the compounds represented by the formulae (11) and (14) were easily dissolved in final concentrations of 35 mM, 10 mM and 20 mM, respectively, in the DMSO solution. On the other hand, the compound in which a halogen atom or the like has not been introduced into the thiophene ring of the compound of the formula (2) was dissolved in a final concentration of 10 mM in the DMSO solution by being intensively stirred.

[4] = system: various types of kinases (MAPKAPK2, AurA, PKCζ, RSK1, PRAK, Erk1, PKD2, CHK1, ABL, FYN, LYN, CHK2, MET, LCK, SRC, GSK3β, Erk2, PKA, AKT2, INSR, p38α, AKT1 …); assay: Inhibitory specificity to various types of kinases, Profiler Pro kit; format: biochemical; conditions: final concentration of 10 μM, 1 μM or 0.1 μM; reacted 15 minutes
Procedure: The inhibitory specificity of the casein kinase 1δ to and casein kinase 1ε inhibiting compounds to various types of kinases can be examined using Profiler Pro kit (manufactured by Caliper Life Sciences) in accordance with the method described in an instruction manual included therewith. The compounds represented by the formulae (2), (11) and (14) were each allowed to react with various types of kinases for 15 minutes, resulting in the final concentration of 10 μM, 1 μM or 0.1 μM. After completion of the reaction, enzyme activity was examined.

[5] = biological target: Dual specificity tyrosine-phosphorylation-regulated kinase 1A (DYRK1A) (Homo sapiens, UniProt Q13627); assay: DYRK1A inhibition, Profiler Pro kit method; format: biochemical; conditions: compound 1 μM; read-out: DYRK1A enzyme activity inhibition percentage
Text: As with casein kinase 1δ, this DYRK1A has been known as a candidate kinase for phosphorylating tau proteins, and also as a kinase for controlling circadian rhythm.

rats [6] = assay: Rat circadian rhythm disorder model (momentum and non-REM sleep under LD conditions); format: in vivo; conditions: for momentum / non-REM sleep amount: 60 mg/kg intraperitoneal immediately before dark period, vs untreated rats
Procedure: Specifically, rats were acclimatized for one or more weeks under light/dark (LD) conditions consisting of a light period for 12 hours and a dark period for 12 hours. Immediately before the beginning of the dark period, the compound represented by the formula (11) was mixed with a solubilizing agent, and the mixture was intraperitoneally administered to each rat at a dose of 60 mg/kg. […] On the other hand, with regard to a compound in which as halogen group or the like had not been introduced into the thiophene ring of the compound represented by the formula (2) ((4-((6-methoxy-3-pyridinyl)methylene)-2-(2-thienyl)-5(4H)-oxazolone)), the same test as described above was carried out.

[7] = biological target: T3, human recombinant casein kinase 1δ (substrate human recombinant tau) (Homo sapiens, UniProt P48730); assay: Casein kinase 1δ inhibition with tau as substrate (Phos-tag Western blotting); format: biochemical; conditions: compound 25 μM to 1 μM, 200 μM ATP, vs reaction solution without compound
T3 construct: purchased Carna Biosciences 03-103
Procedure: The activity of the present compound to inhibit casein kinase 1δ having tau as a substrate can be examined using human recombinant casein kinase 1δ (Carna Biosciences; Cat No. 03-103) as an enzyme source and also using human recombinant tau (Sigma-Aldrich; Cat No. T0576) as a phosphorylation substrate. The composition (final concentration) applied during the inhibitory activity measurement assay is as follows.
25 μg/ml casein kinase 1δ, 10 μg/ml tau, the present compound (25 μM to 1 μM), 200 μM ATP, 50 mM HEPES (pH7.4), 10 mM MgCl2, 0.01% Brij-35, 200 μM Na3VO4, and 0.25% DMSO
The present compound has previously been allowed to react with the enzyme at room temperature for 15 minutes, and tau is then added to the reaction product. Thereafter, a phosphorylation reaction is carried out for 2 hours. After completion of the phosphorylation reaction, the reaction solution is subjected to Western blotting, so that the phosphorylation of the human recombinant tau transcribed on a PVDF membrane is detected using Phos-tag (NARD Institute, Ltd.; Cat No. BTL-104) according to a chemiluminescence method (ECL Plus; GE Healthcare; Cat No. RPN2132). The PVDF membrane after detection of the phosphorylation reaction is deprobed in accordance with the protocols of the Phos-tag, and thereafter, a total tau protein content can be detected by an antibody reaction. […]

rats [8] = conditions: subcutaneous administration; cited from earlier work
p38α = p38α (Homo sapiens, UniProt Q16539); conditions: cited from earlier work
[9] = system: N2A cells (N2A-APP695 cells); conditions: N2A-APP695 cells excessively expressing constitutively active casein kinase 1ε; cited from earlier work
[10] = system: human pancreatic cancer cell line; conditions: added in vitro; cited from earlier work
[11] = system: pancreatic cancer cell line transplanted into the subcutis of a mouse; conditions: subcutaneous transplant; cited from earlier work
[12] = low-purity compound obtained by Scheme 1

T1 sequence (P48730 whole entry): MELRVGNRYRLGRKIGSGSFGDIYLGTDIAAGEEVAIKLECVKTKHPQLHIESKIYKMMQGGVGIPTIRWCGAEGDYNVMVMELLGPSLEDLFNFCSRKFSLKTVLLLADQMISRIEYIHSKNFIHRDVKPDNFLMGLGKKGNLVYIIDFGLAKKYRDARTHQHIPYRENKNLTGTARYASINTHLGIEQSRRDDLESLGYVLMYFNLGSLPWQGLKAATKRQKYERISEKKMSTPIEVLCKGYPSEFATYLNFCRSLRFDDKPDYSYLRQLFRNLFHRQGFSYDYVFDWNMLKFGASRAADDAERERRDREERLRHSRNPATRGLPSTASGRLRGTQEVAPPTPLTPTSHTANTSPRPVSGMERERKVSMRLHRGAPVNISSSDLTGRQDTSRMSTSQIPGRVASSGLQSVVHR
T2 sequence (P49674 whole entry): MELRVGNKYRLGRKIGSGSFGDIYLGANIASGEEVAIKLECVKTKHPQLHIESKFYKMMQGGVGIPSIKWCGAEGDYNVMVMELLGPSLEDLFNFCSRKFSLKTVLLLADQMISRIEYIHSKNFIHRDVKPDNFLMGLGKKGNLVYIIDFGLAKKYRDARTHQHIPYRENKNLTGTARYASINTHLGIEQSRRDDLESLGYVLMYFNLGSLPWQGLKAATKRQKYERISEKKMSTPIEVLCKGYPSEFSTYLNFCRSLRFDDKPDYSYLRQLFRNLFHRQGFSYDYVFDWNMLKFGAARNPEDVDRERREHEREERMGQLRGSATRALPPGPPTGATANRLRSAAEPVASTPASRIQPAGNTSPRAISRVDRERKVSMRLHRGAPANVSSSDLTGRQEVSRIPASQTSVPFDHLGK
T3 sequence (P48730 whole entry): as the sequence (P48730 whole entry) above
Sequence of p38α (Q16539 whole entry): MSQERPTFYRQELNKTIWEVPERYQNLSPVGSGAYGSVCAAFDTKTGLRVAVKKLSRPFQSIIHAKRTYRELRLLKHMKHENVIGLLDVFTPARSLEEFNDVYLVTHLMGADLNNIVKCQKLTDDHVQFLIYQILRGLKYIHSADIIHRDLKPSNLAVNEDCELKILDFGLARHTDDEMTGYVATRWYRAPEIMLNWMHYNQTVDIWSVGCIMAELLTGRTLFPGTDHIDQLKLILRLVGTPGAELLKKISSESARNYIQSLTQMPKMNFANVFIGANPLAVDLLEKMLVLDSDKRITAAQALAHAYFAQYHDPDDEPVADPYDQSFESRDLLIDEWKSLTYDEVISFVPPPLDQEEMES

Structure (SMILES) | inhibition at 0.3 µg/mL [1] | inhibition at 0.3 µg/mL [2] | final concentration dissolved in the DMSO solution ([3]; easily dissolved) | inhibitory activity against various types of kinases causing concerns about side effects [4] | inhibition at 1 µM [5] | momentum (rats [6]) | non-REM sleep amount (rats [6]) | inhibition of phosphorylation of tau by casein kinase 1δ (phosphorylation rate of tau) [7] | other results
COc1ccc(/C=C2\N=C(c3ccc(Cl)s3)OC2=O)cn1 [Formula (11), 4-((6-Methoxy-3-pyridinyl)methylene)-2-(5-chloro-2-thienyl)-5(4H)-oxazolone] | 77.9% | 94.8% | 10 mM | did not have significant inhibitory activity | 78% | statistically significant reduction | increase | significant inhibition | medicinal effect compared with the compound without halogen on the thiophene ring (rats [6]; same test): significantly higher
Nc1nccc(-c2c(-c3ccc(F)cc3)ncn2C2CCCCC2)n1 [PF-670462, 4-[3-cyclohexyl-5-(4-fluoro-phenyl)-3H-imidazol-4-yl]-pyrimidin-2-ylamine] |  |  |  |  |  |  |  |  | phase of circadian rhythm (rats [8]): significantly delayed; inhibitory action against p38α (p38α): exhibit inhibitory action
COc1ccc(/C=C2\N=C(c3ccc(F)s3)OC2=O)cn1 [Formula (2), 4-((6-Methoxy-3-pyridinyl)methylene)-2-(5-fluoro-2-thienyl)-5(4H)-oxazolone] | 83% | 97.7% | 35 mM | did not have significant inhibitory activity | 65% |  |  | significant inhibition | inhibitory activity against casein kinase 1δ [1, 12]: significant inhibitory activity; inhibitory activity against casein kinase 1ε [2, 12]: significant inhibitory activity
COc1ccc(/C=C2\N=C(c3ccc(Br)s3)OC2=O)cn1 [Formula (14)] | 77.8% | 95% | 20 mM | did not have significant inhibitory activity | 85% |  |  |  | 
COc1ccc(C=C2N=C(c3cccs3)OC2=O)cn1 [4-((6-methoxy-3-pyridinyl)methylene)-2-(2-thienyl)-5(4H)-oxazolone, reference compound] |  |  |  |  |  | significant reduction | increase |  | final concentration dissolved in the DMSO solution ([3]; dissolved by being intensively stirred): 10 mM
COc1cc(OC)c(C=C2C(O)=Nc3ccccc32)c(OC)c1 [IC261] |  |  |  |  |  |  |  |  | amounts of Aβ40 and Aβ42 [9]: decreased; cell growth [10]: suppression of the cell growth; growth of tumor cells [11]: significant effect of suppressing the growth of tumor cells
